Like-named read-outs stand apart in the source and are kept apart here. Blank lines part the entries; values can stand above or below the compound they belong to.
Columns and labels:
[1] = Pharmacokinetics in rats (jugular vein cannula, plasma LC-MS); format: in vivo, Rat; settings: for Cmax / half-life / Tmax: rat, plasma, po
Experimental: Rats (male or female, 200-225 g) were prepared with indwelling jugular vein cannula as described by Harms et al., Applied Physiol. 36:391-398 (1974), and allowed to recover overnight with free access to the standard vivarium chow and water. […] […] The blood samples were withdrawn at specific times, plasma was immediately separated and compound extracted with ethyl acetate. The samples were analyzed by LC-MS using 30-90% gradient of ACN in 50 mM ammonium acetate.
The pharmacokinetic parameters were calculated using WinNonlin software (Scientific Consulting Inc.). The bioavailability was calculated as AUCp.o./AUCi.v., where AUCp.o. and AUC i.v. are areas under the plasma concentration-time curve after oral and i.v. administration, respectively.

[2] = target: H S A (Homo sapiens, UniProt P02768); test: H S A column α; format: in vitro ADME
[3] = target: T1, mouse GnRH receptors (Mus musculus, UniProt Q01776); test: Radioligand binding: inhibition of 125I-GnRH-A binding to mouse GnRH receptor membranes; settings: HEK 293 cell membranes
T1 construct: expressed in transfected cells; host or cells: HEK 293 cells, stably transfected; membranes
T1 sequence (Q01776 1-327): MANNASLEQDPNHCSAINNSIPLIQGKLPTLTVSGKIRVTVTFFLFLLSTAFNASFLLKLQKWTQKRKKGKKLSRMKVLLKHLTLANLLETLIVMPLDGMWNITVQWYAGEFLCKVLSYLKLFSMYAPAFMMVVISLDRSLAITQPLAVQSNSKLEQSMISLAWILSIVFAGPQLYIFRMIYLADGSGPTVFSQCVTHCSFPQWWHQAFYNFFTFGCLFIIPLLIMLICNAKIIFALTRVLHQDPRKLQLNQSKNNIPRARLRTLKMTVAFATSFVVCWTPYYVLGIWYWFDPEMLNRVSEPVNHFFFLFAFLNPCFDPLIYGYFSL
Experimental: HEK 293 cells stably transfected with mouse or human GnRH receptors as described above were grown in Dulbecco's high-glucose, modified Eagle's medium (DMEM) supplemented with 0.2% G418, 10% fetal bovine serum (FBS) and 100 U/mL penicillin/streptomycin. GH3 cells stably transfected with the rat GnRH receptor (GGH3) were provided by Dr. William Chin (Harvard Medical School, Boston, Mass.). These cells have been extensively characterized previously (Kaiser et al., 1997). The cells were grown in low glucose DMEM containing: 100U/mL penicillin/streptomycin, 0.6% G418 and 10% heat-inactivated FBS.
HEK 293 cells containing mouse or human receptors, or rat pituitaries (Pel Freez Biologicals, Rogers, Ark.) were homogenized in buffer A containing: 50 mM Tris (pH 7.4), 0.32 M sucrose, 2 mM EGTA, 1 mM PMSF, 5 μg/ml aprotinen, 5 μg/ml Pepstatin A, and 1 μg/ml leupeptin. Homogenized cells were centrifuged at 4° C. at 20,000×g for 25 minutes, re-suspended in buffer A and re-centrifuged at 4° C. at 20,000×g for an additional 25 minutes. Total membrane protein was determined with a BCA kit (Pierce, Rockford, Ill.). Membranes were stored at −70° C. at a final membrane protein concentration of approximately 5 mg/ml.
The radioiodinated agonist analog of GnRH, [des-Gly^10,D-Ala^6]GnRH ethylamide (^125I-GnRH-A), was used as the radioligand. […] The reaction mixture was vortexed and incubated for 1 minute at room temperature. After one minute, the mixture was vortexed and allowed to incubate for an additional minute. 2 ml of 0.5 M acetic acid/1% BSA was added to the reaction tube and the mixture was added to a C18 Sep-Pak cartridge. The cartridge was washed with subsequent washes of 5 ml H2O and 5 ml 0.5 M acetic acid and then eluted with 5×1 ml of 60% CH3CN/40% 0.5 M acetic acid. The eluate was diluted with 3× volume of HPLC buffer A (0.1% TFA in H2O) and loaded onto a C18 column. The iodinated product was eluted over 20-25 min with a gradient of 25-100% CH3CN containing 0.1% TFA. The radioactive fractions (750 μl/fraction) were collected into clean polypropylene tubes containing 100 μl of 10% BSA. Fractions were assessed for biological activity by radioligand binding. Specific activity of the radioligand was approximately 2200 Ci/mmol.
Membranes were diluted to 0.01-0.5 mg/ml (depending upon the species of receptor) with assay buffer containing 50 mM HEPES (pH 7.4), 1 mM EDTA, 2.5 mM MgCl2, and 0.1% BSA. Membranes (diluted to utilize similar receptor numbers between assays) were incubated with approximately 0.04-0.06 nM ^125I-GnRH-A in the presence or absence of competing agents (0.1-10,000 nM) in a total volume of 200 μl in 96-well polypropylene plates for 1 hour at room temperature. Assays were stopped by rapid filtration onto 96-well GF/C filters soaked in 0.1% polyethylenimine (PEI) utilizing a Packard 96-well cell harvester. Filters were washed three times with ice-cold PBS (50 mM NaPO4, 0.9% NaCl, 2 mM MgCl2, and 0.02% NaN3, pH 7.4). 35 μl of scintillation cocktail was added to each filter well and filters were counted on a Packard Topcount. Control dose-response curves were generated to GnRH (0.1 nM-100 nM) in each competition binding experiment. Ki values were calculated from IC50 values according to Cheng et al., Biochemical Pharmacol. 22: 3099-3108, 1973. [formula]

[4] = female rat, 10 mg/kg as 5 mg/ml solution in 10% DMSO, 10% cremophor, 80% saline (footnote 5)
[5] = female, 10 mg/kg, female rat, 10 mg/kg as 5 mg/ml solution in 10% DMSO, 10% cremophor, 80% saline (footnote 5), read-out: FR Cmax
[6] = female, 10 mg/kg, female rat, 10 mg/kg as 5 mg/ml solution in 10% DMSO, 10% cremophor, 80% saline (footnote 5), read-out: FR T1/2 hr (converted)
[7] = female, 10 mg/kg, female rat, 10 mg/kg as 5 mg/ml solution in 10% DMSO, 10% cremophor, 80% saline (footnote 5), read-out: FR Tmax hr

Chain of H S A (P02768 25-609): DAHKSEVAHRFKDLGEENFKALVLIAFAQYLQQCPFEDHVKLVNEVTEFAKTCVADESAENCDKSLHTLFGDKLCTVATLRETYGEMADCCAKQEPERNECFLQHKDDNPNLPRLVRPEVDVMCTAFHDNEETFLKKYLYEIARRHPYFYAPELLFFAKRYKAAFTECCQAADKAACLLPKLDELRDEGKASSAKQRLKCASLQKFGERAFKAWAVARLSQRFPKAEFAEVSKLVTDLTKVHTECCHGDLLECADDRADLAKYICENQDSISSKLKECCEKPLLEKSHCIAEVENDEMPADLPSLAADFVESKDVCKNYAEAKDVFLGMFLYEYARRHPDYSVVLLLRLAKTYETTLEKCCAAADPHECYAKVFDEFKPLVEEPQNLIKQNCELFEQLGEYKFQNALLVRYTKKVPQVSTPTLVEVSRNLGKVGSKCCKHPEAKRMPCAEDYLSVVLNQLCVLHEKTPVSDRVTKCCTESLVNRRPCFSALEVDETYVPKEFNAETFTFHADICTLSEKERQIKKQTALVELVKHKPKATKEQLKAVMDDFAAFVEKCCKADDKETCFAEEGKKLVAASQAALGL

FR Fp.o. [1, 4]: 60%^5
Cmax [1, 5]: 4000 nM
half-life [1, 6]: 2.2 h
Tmax [1, 7]: 1 h
Cmax ([1]; male, 20 mg/kg, male rat, 20 mg/kg as 10 mg/ml in Labrasol/H2O 1/1 (footnote 2), read-out: MR Cmax): 3200 nM
Tmax ([1]; male, 20 mg/kg, male rat, 20 mg/kg as 10 mg/ml in Labrasol/H2O 1/1 (footnote 2), read-out: MR Tmax hr): 1 h
Cmax ([1]; male, 50 mg/kg, male rat, 50 mg/kg in 50 mg/ml PG (footnote 2), read-out: Cmax): 3700 nM
Tmax ([1]; male, 50 mg/kg, male rat, 50 mg/kg in 50 mg/ml PG (footnote 2), read-out: Tmax): 0.5 h
H S A column α [2]: 0.4
SMILES: COc1nc(OCCO)nc(OC)c1NC(=O)c1ccc(Cc2cc3c(cc2C)C(C)(C)OC3(C)C)o1 [Example A3, 5-(1,1,3,3,6-Pentamethyl-1,3-dihydro-isobenzofuran-5-ylmethyl)-furan-2-carboxylic acid [2-(2-hydroxy-ethoxy)-4,6-dimethoxy-pyrimidin-5-yl]-amide]

FR Fp.o. ([1]; female rat, 10 mg/kg as 5 mg/ml solution in 10% DMSO 20% Labrasol, 70% saline (footnote 4)): 37%^4
Cmax ([1]; female, 10 mg/kg, female rat, 10 mg/kg as 5 mg/ml solution in 10% DMSO 20% Labrasol, 70% saline (footnote 4), read-out: FR Cmax): 1400 nM
half-life ([1]; female, 10 mg/kg, female rat, 10 mg/kg as 5 mg/ml solution in 10% DMSO 20% Labrasol, 70% saline (footnote 4), read-out: FR T1/2 hr (converted)): 5.1 h
Tmax ([1]; female, 10 mg/kg, female rat, 10 mg/kg as 5 mg/ml solution in 10% DMSO 20% Labrasol, 70% saline (footnote 4), read-out: FR Tmax hr): 1 h
MR Fp.o. ([1]; male rat, 10 mg/kg as 5 mg/ml solution in 10% DMSO, 20% Labrasol, 70% saline (footnote 1)): 6%^1
Cmax ([1]; male, 10 mg/kg, male rat, 10 mg/kg as 5 mg/ml solution in 10% DMSO, 20% Labrasol, 70% saline (footnote 1), read-out: MR Cmax): 100 nM
half-life ([1]; male, 10 mg/kg, male rat, 10 mg/kg as 5 mg/ml solution in 10% DMSO, 20% Labrasol, 70% saline (footnote 1), read-out: MR T1/2 hr (converted)): 1.5 h
Tmax ([1]; male, 10 mg/kg, male rat, 10 mg/kg as 5 mg/ml solution in 10% DMSO, 20% Labrasol, 70% saline (footnote 1), read-out: MR Tmax hr): 1 h
H S A column α [2]: 1
Ki [3]: 4.2 nM
SMILES: COc1nc(OC)c(NC(=O)c2ccc(Cc3cc4c(cc3C)C(C)(C)OC4(C)C)o2)c(OC)n1 [Example A1, 5-(1,1,3,3,6-Pentamethyl-1,3-dihydro-isobenzofuran-5-ylmethyl)-furan-2-carboxylic Acid (2,4,6-trimethoxy-pyrimidin-5-yl)-amide]

FR Fp.o. [1, 4]: 56%^5
Cmax [1, 5]: 800 nM
half-life [1, 6]: 2 h
Tmax [1, 7]: 2 h
H S A column α [2]: 13
Ki [3]: 0.42 nM
SMILES: COc1nc(OC)c(NC(=O)c2ccc(Cc3cc4c(cc3C)C(C)(C)CCC4(C)C)o2)c(OC)n1 [Example C1, 5-(3,5,5,8,8-Pentamethyl-5,6,7,8-tetrahydro-naphthalen-2-ylmethyl)-furan-2-carboxylic Acid (2,4,6-trimethoxy-pyrimidin-5-yl)-amide]

FR Fp.o. ([1]; female rat, 6 mg/kg as 3 mg/ml solution in 6% DMSO, 6% cremophor, 88% saline (footnote 6)): 10%^6
Cmax ([1]; female, 6 mg/kg, female rat, 6 mg/kg as 3 mg/ml solution in 6% DMSO, 6% cremophor, 88% saline (footnote 6), read-out: FR Cmax): 900 nM
half-life ([1]; female, 6 mg/kg, female rat, 6 mg/kg as 3 mg/ml solution in 6% DMSO, 6% cremophor, 88% saline (footnote 6), read-out: FR T1/2 hr (converted)): 5.7 h
Tmax ([1]; female, 6 mg/kg, female rat, 6 mg/kg as 3 mg/ml solution in 6% DMSO, 6% cremophor, 88% saline (footnote 6), read-out: FR Tmax hr): 1 h
H S A column α [2]: >30
Ki [3]: 3.4 nM
SMILES: COc1nc(N(C)C)nc(OC)c1NC(=O)c1ccc(Cc2cc3c(cc2C)C(C)(C)CCC3(C)C)o1 [Example B2, 5-(3,5,5,8,8-Pentamethyl-5,6,7,8-tetrahydro-naphthalen-2-ylmethyl)-furan-2-carboxylic Acid (dimethylamino-dimethoxy-pyrimidin-5-yl)-amide]
